# Legend:
# mouse [1] = settings: Carcinogenicity; cd1; Oral; Feed; dose end: 18 month; group: systemic; systemic / organ weight / liver / absolute + systemic / organ weight / liver / relative to body weight + systemic / pathology microscopic / …
# rat [2] = settings: Multigenerational reproductive toxicity study; other; Oral; Feed; dose end: 3 generation; group: parental; systemic / in life observation / body weight / body weight
# rat [3] = settings: Prenatal developmental toxicity study, sprague dawley, Oral, Gavage/Intubation, dose end: 15 GD
# mouse [4] = settings: Carcinogenicity; cd1; Oral; [Not Specified]; dose end: 79 week; group: systemic; systemic / hematology / erythrocyte (rbc) count differential / erythrocyte (rbc) + systemic / hematology / hematocrit (hct) / hematocrit (…
# rat [5] = settings: Subchronic oral toxicity in rodents, sprague dawley, Feed, dose end: 90 day, group: systemic
# dog [6] = settings: Subchronic oral toxicity in nonrodent, beagle, Capsule, dose end: 13 week, group: systemic, systemic / hematology / blood clotting / blood clotting - activated partial thromboplastin time
# dog [7] = settings: Chronic toxicity; beagle; Oral; Capsule; dose end: 52 week; group: systemic; systemic / clinical chemistry / alkaline phosphatase (alp/alk) / alkaline phosphatase (alp/alk) + systemic / hematology / blood clotting / …
# rat [8] = settings: Multigenerational reproductive toxicity study, other, Oral, Feed, dose end: 2 generation
# rat [9] = settings: Combined chronic toxicity/carcinogenicity, sprague dawley, Oral, Feed, dose end: 106 week, group: systemic
# rat [10] = settings: Subchronic oral toxicity in rodents, other, Feed, dose end: 13 week
# [11] = group: developmental, developmental / developmental malformation / bone / delayed ossification
# [12] = group: maternal, systemic / in life observation / body weight / body weight gain
# [13] = systemic / urinalysis / sediment microscopic / epithelial cells
# [14] = systemic / urinalysis / sediment microscopic / epithelial cells + systemic / organ weight / liver / relative to body weight
# [15] = group: offspring, developmental / offspring survival late / viability index / viability index
# [16] = group: offspring, developmental / offspring survival late / viability index / viability index + systemic / in life observation / body weight / offspring (pup…
# [17] = group: parental, systemic / organ weight / kidney / absolute
# [18] = group: parental, systemic / organ weight / kidney / absolute + systemic / organ weight / kidney / relative to body weight + systemic / organ weight / liver…
# [19] = systemic / organ weight / spleen / absolute + systemic / organ weight / liver / relative to body weight
# [20] = group: cholinesterase, cholinesterase / cholinesterase / cholinesterase / cholinesterase (che)
# [21] = group: systemic, systemic / organ weight / liver / relative to body weight + systemic / clinical chemistry / [other] / [other] + systemic / in life …
smiles,measurement,setting,value
O=C(O)Cc1c(Cl)ccc(Cl)c1Cl [Chlorfenac],LEL,mouse [1],600 mg/kg/day
same,LOAEL,mouse [1],> 600 mg/kg/day
same,NEL,mouse [1],300 mg/kg/day
same,NOAEL,mouse [1],≥ 600 mg/kg/day
same,LEL,rat [2],125 mg/kg/day
same,LOAEL,rat [2],> 125 mg/kg/day
same,NEL,rat [2],25 mg/kg/day
same,NOAEL,rat [2],≥ 125 mg/kg/day
same,LEL,rat [3]; [11],300 mg/kg/day
same,LOAEL,rat [3]; [11],> 300 mg/kg/day
same,NEL,rat [3]; [11],60 mg/kg/day
same,NOAEL,rat [3]; [11],≥ 300 mg/kg/day
same,LEL,rat [3]; [12],300 mg/kg/day
same,LOAEL,rat [3]; [12],> 300 mg/kg/day
same,NEL,rat [3]; [12],60 mg/kg/day
same,NOAEL,rat [3]; [12],≥ 300 mg/kg/day
CCCCCOC(=O)COc1cc(N2C(=O)C3=C(CCCC3)C2=O)c(F)cc1Cl [Flumiclorac-pentyl],LEL,mouse [4],308 mg/kg/day
same,LOAEL,mouse [4],308 mg/kg/day
same,NEL,mouse [4],31.5 mg/kg/day
same,NOAEL,mouse [4],31.5 mg/kg/day
same,LEL,rat [5]; [13],659 mg/kg/day
same,LOAEL,rat [5]; [13],659 mg/kg/day
same,NEL,rat [5]; [14],64.9 mg/kg/day
same,NOAEL,rat [5]; [14],64.9 mg/kg/day
same,LEL,dog [6],100 mg/kg/day
same,LOAEL,dog [6],100 mg/kg/day
same,NEL,dog [6],10 mg/kg/day
same,NOAEL,dog [6],10 mg/kg/day
same,LEL,dog [7],1000 mg/kg/day
same,LOAEL,dog [7],1000 mg/kg/day
same,NEL,dog [7],100 mg/kg/day
same,NOAEL,dog [7],100 mg/kg/day
same,LEL,rat [8]; [15],829 mg/kg/day
same,LOAEL,rat [8]; [15],829 mg/kg/day
same,NEL,rat [8]; [16],18 mg/kg/day
same,NOAEL,rat [8]; [16],18 mg/kg/day
same,LEL,rat [8]; [17],18 mg/kg/day
same,NEL,rat [8]; [17],< 18 mg/kg/day
same,LOAEL,rat [8]; [18],829 mg/kg/day
same,NOAEL,rat [8]; [18],18 mg/kg/day
same,LOAEL,rat [9]; systemic / organ weight / liver / relative to body weight + systemic / organ weight / kidney / absolute + systemic / organ weight / liver / …,360 mg/kg/day
same,LEL,rat [9]; [19],3.5 mg/kg/day
same,NEL,rat [9]; [19],< 3.5 mg/kg/day
same,NOAEL,rat [9]; systemic / organ weight / spleen / absolute + systemic / organ weight / liver / relative to body weight + systemic / organ weight / kidney…,35.4 mg/kg/day
same,LEL,rat [10]; [20],73.8 mg/kg/day
same,LOAEL,rat [10]; [20],73.8 mg/kg/day
same,NEL,rat [10]; [20],7.4 mg/kg/day
same,NOAEL,rat [10]; [20],7.4 mg/kg/day
same,LEL,"rat [10]; group: systemic, systemic / clinical chemistry / [other] / [other] + systemic / in life observation / food consumption / food efficiency + systemic / in life…",664 mg/kg/day
same,LOAEL,"rat [10]; group: systemic, systemic / organ weight / liver / relative to body weight",1360 mg/kg/day
same,NEL,rat [10]; [21],67 mg/kg/day
same,NOAEL,rat [10]; [21],664 mg/kg/day
